Test system: K24384-001-R-PDC complex spheroid growth
Experiment: Anticancer human tumor K24384-001-R-PDC patient-derived pancreatic adenocarcinoma cell line growth inhibition [AhR]
Settings: for IC50: curve of first compound; for viability, T/C: stronger effect = lower value
Description: Multicellular complex tumor spheroid response to aryl hydrocarbon receptor antagonists in combination with a variety of drugs and investigational agents in selected tumor cell lines
The current study was undertaken to assess response to aryl hydrocarbon receptor antagonists in combination with standard-of-care drugs and investigational agents in solid tumor complex spheroid models. Complex spheroids include a stromal component modeled by human endothelial cells (HUVEC) and fibroblasts modeled by human mesenchymal stem cells (MSCs). The concentration ranges selected for each drug and investigational agent were based upon clinically achievable concentrations if the clinical Cmax of the agent was known.
Compounds. The drugs and investigational agents: BAY 2416964 (NSC825713), GNF351 (NSC835774), CH-223191 (NSC835775), CPI-455 (NSC825282), aza-TdCyd (NSC777586), decitabine (NSC127716), belinostat (NSC758774), entinostat (NSC756642), pevonedistat (NSC761192), tazemetostat (NSC777109), talazoparib (NSC765396), olaparib (NSC753686), selinexor (NSC780203), nedisertib (M3814, NSC802822), bortezomib (NSC756655), venetoclax (NSC766270), doxorubicin (NSC123127), elimusertib (BAY189344, NSC800525), ceralasertib (AZD6738, NSC777638), TAK-243 (NSC785004), alisertib (NSC759677), etoposide (NSC141540), topotecan (NSC609699), eribulin (NSC707389), gemcitabine (NSC613327), carboplatin (NSC241240), cisplatin (NSC119875), and SN-38 (NSC673596) were obtained from the National Cancer Institute (NCI) Developmental Therapeutics Program Chemical Repository (32). The FDA-approved anticancer drug set is available from the Developmental Therapeutics Program at https://dtp.cancer.gov/organization/dscb/obtaining/available plates.htm. […] The stock solutions were prepared in dimethyl sulfoxide (DMSO, Sigma-Aldrich, St. Louis, MO, cat. D2650), except for the platinum compounds which were prepared in saline (Quality Biological, Gaithersburg, MD, cat. 114-055-101), at 800-fold the tested concentration and stored at -70 degrees C prior to their use. All drugs and investigational agents were tested over a range starting from a high concentration at or near the clinical Cmax and decreasing in half-log increments. If the clinical Cmax for an agent had not been determined, the highest concentration tested was 10 microM (Table 1).
Cell Culture. All cells were maintained in an incubator at 37 degrees C and 5% CO2 with 95% humidity. The PDC lines were cultured according to standard operating procedures established by the NCI PDMR (https://pdmr.cancer.gov). Briefly, all PDCs were thawed and cultured in Matrigel-coated flasks prepared with a working solution of 1X Ham's F-12 nutrient mix, without supplementation (Invitrogen, Waltham, MA, cat. 11765054), 100 U/mL penicillin-streptomycin (Invitrogen, cat. 15140122), and 2.5% Matrigel (Corning Inc., Corning, NY, cat. 354248) for the first three passages. All PDCs were cultured in complete DMEM/F-12 media containing advanced DMEM/F-12 (Invitrogen, cat. 12634028), 4.9% defined fetal bovine serum, heat inactivated (HyClone Laboratories Inc., Logan, UT, cat. SH30070.03HI), 389 ng/mL hydrocortisone (Sigma-Aldrich, cat. H4001), 9.7 ng/mL human EGF recombinant protein (Invitrogen, cat. PHG0313), 23.4 microg/mL adenine (Sigma-Aldrich, cat. A2786), 97.3 U/mL penicillin-streptomycin (Invitrogen, cat. 15140122), 1.9 mM L-glutamine (Invitrogen, cat. 25030081), and 9.7 microM Y-27632 dihydrochloride (Tocris Bioscience, Bristol, United Kingdom, cat. 1254). The PDCs were cultured in complete DMEM/F12 media without 10 microM Y-27632 dihydrochloride for at least two passages prior to the screen. The established cell lines NCI-H1341 and […] were cultured in DMEM/F-12, HEPES (Invitrogen, cat. 11330032), 5% defined fetal bovine serum (HyClone Laboratories Inc., cat. SH30070.03), ITS premix universal culture supplement [insulin (5 microg/mL), transferrin (5 microg/mL), and selenious acid (5 ng/mL)] […]

[1] = second compound 0.1 µM, first compound 0.0316 µM
[2] = second compound 0.1 µM, first compound 0.1 µM
[3] = second compound 0.1 µM, first compound 0.316 µM
[4] = second compound 0.1 µM, first compound 1 µM
[5] = second compound 0.1 µM, first compound 3.16 µM
[6] = second compound 0.1 µM, first compound 10 µM
[7] = second compound 0.316 µM, first compound 0.0316 µM
[8] = second compound 0.316 µM, first compound 0.1 µM
[9] = second compound 0.316 µM, first compound 0.316 µM
[10] = second compound 0.316 µM, first compound 1 µM
[11] = second compound 0.316 µM, first compound 3.16 µM
[12] = second compound 0.316 µM, first compound 10 µM
[13] = second compound 1 µM, first compound 0.0316 µM
[14] = second compound 1 µM, first compound 0.1 µM
[15] = second compound 1 µM, first compound 0.316 µM
[16] = second compound 1 µM, first compound 1 µM
[17] = second compound 1 µM, first compound 3.16 µM
[18] = second compound 1 µM, first compound 10 µM
[19] = second compound 3.16 µM, first compound 0.0316 µM
[20] = second compound 3.16 µM, first compound 0.1 µM
[21] = second compound 3.16 µM, first compound 0.316 µM
[22] = second compound 3.16 µM, first compound 1 µM
[23] = second compound 3.16 µM, first compound 3.16 µM
[24] = second compound 3.16 µM, first compound 10 µM
[25] = second compound 10 µM, first compound 0.0316 µM
[26] = second compound 10 µM, first compound 0.1 µM
[27] = second compound 10 µM, first compound 0.316 µM
[28] = second compound 10 µM, first compound 1 µM
[29] = second compound 10 µM, first compound 3.16 µM
[30] = second compound 10 µM, first compound 10 µM
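For viability, T/C in this document: percent of DMSO vehicle-treated spheroid viability set as 100%.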

Structure (SMILES): CC(C)CC(NC(=O)C(Cc1ccccc1)NC(=O)c1cnccn1)B(O)O (stereo not given) + CC(CO)NC(=O)c1cc(-c2ccc(Cl)cc2)nn(-c2cnn(C)c2)c1=O
- IC50 (second compound 0.1 µM): 0.00657 µM
- IC50 (second compound 0.316 µM): 0.00716 µM
- IC50 (second compound 1 µM): 0.00654 µM
- IC50 (second compound 3.16 µM): 0.00558 µM
- IC50 (second compound 10 µM): 0.00603 µM
- viability, T/C (second compound 0.1 µM, first compound 0.000949 µM): 118%
- viability, T/C (second compound 0.1 µM, first compound 0.003 µM): 110%
- viability, T/C (second compound 0.1 µM, first compound 0.00949 µM): 22%
- viability, T/C (second compound 0.1 µM, first compound 0.03 µM): 0.35%
- viability, T/C (second compound 0.1 µM, first compound 0.0949 µM): 0.73%
- viability, T/C (second compound 0.1 µM, first compound 0.3 µM): 0.34%
- viability, T/C (second compound 0.316 µM, first compound 0.000949 µM): 133%
- viability, T/C (second compound 0.316 µM, first compound 0.003 µM): 125%
- viability, T/C (second compound 0.316 µM, first compound 0.00949 µM): 25.6%
- viability, T/C (second compound 0.316 µM, first compound 0.03 µM): 0.68%
- viability, T/C (second compound 0.316 µM, first compound 0.0949 µM): 0.25%
- viability, T/C (second compound 0.316 µM, first compound 0.3 µM): 0.3%
- viability, T/C (second compound 1 µM, first compound 0.000949 µM): 108%
- viability, T/C (second compound 1 µM, first compound 0.003 µM): 108%
- viability, T/C (second compound 1 µM, first compound 0.00949 µM): 22.2%
- viability, T/C (second compound 1 µM, first compound 0.03 µM): 0.35%
- viability, T/C (second compound 1 µM, first compound 0.0949 µM): 0.3%
- viability, T/C (second compound 1 µM, first compound 0.3 µM): 0.35%
- viability, T/C (second compound 3.16 µM, first compound 0.000949 µM): 83.6%
- viability, T/C (second compound 3.16 µM, first compound 0.003 µM): 99.2%
- viability, T/C (second compound 3.16 µM, first compound 0.00949 µM): 14.6%
- viability, T/C (second compound 3.16 µM, first compound 0.03 µM): 0.34%
- viability, T/C (second compound 3.16 µM, first compound 0.0949 µM): 0.32%
- viability, T/C (second compound 3.16 µM, first compound 0.3 µM): 0.31%
- viability, T/C (second compound 10 µM, first compound 0.000949 µM): 107%
- viability, T/C (second compound 10 µM, first compound 0.003 µM): 110%
- viability, T/C (second compound 10 µM, first compound 0.00949 µM): 12%
- viability, T/C (second compound 10 µM, first compound 0.03 µM): 0.84%
- viability, T/C (second compound 10 µM, first compound 0.0949 µM): 0.35%
- viability, T/C (second compound 10 µM, first compound 0.3 µM): 0.9%

Structure (SMILES): Nc1ccccc1NC(=O)c1ccc(CNC(=O)OCc2cccnc2)cc1 + CC(CO)NC(=O)c1cc(-c2ccc(Cl)cc2)nn(-c2cnn(C)c2)c1=O
- IC50 (second compound 0.1 µM): 1.96 µM
- IC50 (second compound 0.316 µM): 1.35 µM
- IC50 (second compound 1 µM): 1.18 µM
- IC50 (second compound 3.16 µM): 0.987 µM
- IC50 (second compound 10 µM): 0.572 µM
- viability, T/C [1]: 100%
- viability, T/C [2]: 101%
- viability, T/C [3]: 88.2%
- viability, T/C [4]: 60.9%
- viability, T/C [5]: 41.8%
- viability, T/C [6]: 6.28%
- viability, T/C [7]: 87.6%
- viability, T/C [8]: 97.7%
- viability, T/C [9]: 80.6%
- viability, T/C [10]: 53.2%
- viability, T/C [11]: 31.8%
- viability, T/C [12]: 4.37%
- viability, T/C [13]: 88.2%
- viability, T/C [14]: 94.8%
- viability, T/C [15]: 92.1%
- viability, T/C [16]: 47.4%
- viability, T/C [17]: 28.8%
- viability, T/C [18]: 4.21%
- viability, T/C [19]: 83.7%
- viability, T/C [20]: 92.4%
- viability, T/C [21]: 79%
- viability, T/C [22]: 44.6%
- viability, T/C [23]: 24.2%
- viability, T/C [24]: 1.77%
- viability, T/C [25]: 70.9%
- viability, T/C [26]: 72.8%
- viability, T/C [27]: 55.9%
- viability, T/C [28]: 40.5%
- viability, T/C [29]: 25.1%
- viability, T/C [30]: 0.88%

Structure (SMILES): O=C(C=Cc1cccc(S(=O)(=O)Nc2ccccc2)c1)NO + CC(CO)NC(=O)c1cc(-c2ccc(Cl)cc2)nn(-c2cnn(C)c2)c1=O
- IC50 (second compound 0.1 µM): 1.58 µM
- IC50 (second compound 0.316 µM): 2.21 µM
- IC50 (second compound 1 µM): 2 µM
- IC50 (second compound 3.16 µM): 1.6 µM
- IC50 (second compound 10 µM): 1.8 µM
- viability, T/C [1]: 97.1%
- viability, T/C [2]: 126%
- viability, T/C [3]: 126%
- viability, T/C [4]: 65.4%
- viability, T/C [5]: 28.5%
- viability, T/C [6]: 2.04%
- viability, T/C [7]: 119%
- viability, T/C [8]: 130%
- viability, T/C [9]: 122%
- viability, T/C [10]: 96.1%
- viability, T/C [11]: 29.3%
- viability, T/C [12]: 1.86%
- viability, T/C [13]: 123%
- viability, T/C [14]: 127%
- viability, T/C [15]: 137%
- viability, T/C [16]: 81%
- viability, T/C [17]: 30.5%
- viability, T/C [18]: 1.91%
- viability, T/C [19]: 107%
- viability, T/C [20]: 103%
- viability, T/C [21]: 136%
- viability, T/C [22]: 73.3%
- viability, T/C [23]: 20.5%
- viability, T/C [24]: 1%
- viability, T/C [25]: 107%
- viability, T/C [26]: 117%
- viability, T/C [27]: 98.9%
- viability, T/C [28]: 73%
- viability, T/C [29]: 28.4%
- viability, T/C [30]: 0.81%

Reference: PubChem BioAssay AID1919009 (Molecular Pharmacology Branch, DTP, NCI, 2023)
